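Briefly, cells in 96-well plates were exposed to five compound concentrations for 48 h, and endpoints were estimated by linear interpolation. GI50: concentration for 50% inhibition of growth.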 Activity calls are given as the source filed them. No stated cut-off is given here; in the data, active = GI50 up to about 1.1 µM and inactive = higher.
Key:
Test in all cases: NCI tumour cell line growth inhibition, 48 h
SF-539 = tested on: SF-539
KM12 = tested on: KM12
M14 = tested on: M14
SF-268 = tested on: SF-268
OVCAR-3 = tested on: OVCAR-3
Malme-3M = tested on: Malme-3M
COLO 205 = tested on: COLO 205
UACC-62 = tested on: UACC-62
HCT-15 = tested on: HCT-15
CAKI-1 = tested on: CAKI-1
K562 = tested on: K562
SK-MEL-28 = tested on: SK-MEL-28
SN12C = tested on: SN12C
SW-620 = tested on: SW-620
SK-OV-3 = tested on: SK-OV-3
MDA-MB-231 = tested on: MDA-MB-231
PC-3 = tested on: PC-3
DU-145 = tested on: DU-145
NCI/ADR-RES = tested on: NCI/ADR-RES

Structure (SMILES)	GI50 (SF-539)	GI50 (KM12)	GI50 (M14)	GI50 (SF-268)	GI50 (OVCAR-3)	GI50 (Malme-3M)	GI50 (COLO 205)	GI50 (UACC-62)	GI50 (HCT-15) [µM]	GI50 (CAKI-1)	GI50 (K562)	GI50 (SK-MEL-28)	GI50 (SN12C)	GI50 (SW-620)	GI50 (SK-OV-3)	GI50 (MDA-MB-231)	GI50 (PC-3)	GI50 (DU-145)	GI50 (NCI/ADR-RES)
Nc1nc[n+](Cc2ccccc2)c2ncn(Cc3ccccc3)c12	> 100 µM (inactive)	68.9 µM (inactive)	23.7 µM (inactive)	> 100 µM (inactive)	38.6 µM (inactive)	84.3 µM (inactive)	26.7 µM (inactive)	32.4 µM (inactive)	> 100	54.3 µM (inactive)	37.7 µM (inactive)	> 100 µM (inactive)	> 100 µM (inactive)	> 100 µM (inactive)	> 100 µM (inactive)				
CC1/C=C/[C@@]2(C)CCC(C(C)(C)O)C2C(O)C[C@](C)(O)/C=C/C1 (stereo partly drawn)	> 100 µM (inactive)	> 100 µM (inactive)	> 100 µM (inactive)	> 100 µM (inactive)	> 100 µM (inactive)	> 100 µM (inactive)	> 100 µM (inactive)	> 100 µM (inactive)	> 100	> 100 µM (inactive)	65.9 µM (inactive)	> 100 µM (inactive)	> 100 µM (inactive)	> 100 µM (inactive)	> 100 µM (inactive)				
COc1ccccc1OCC(COC(=O)Nc1ccc(C)cc1)OC(=O)Nc1ccc(C)cc1 (stereo not drawn)	19.1 µM (inactive)	20.6 µM (inactive)	19.2 µM (inactive)	19.5 µM (inactive)	17.3 µM (inactive)	17.4 µM (inactive)	18.2 µM (inactive)	15.3 µM (inactive)	15.8	13.1 µM (inactive)	18.5 µM (inactive)	23.7 µM (inactive)	17.9 µM (inactive)	14.9 µM (inactive)	24.7 µM (inactive)				
O=C1N=C2Sc3ccc4ccccc4c3N2C1=O	18.8 µM (inactive)	32.7 µM (inactive)	26.1 µM (inactive)	24.7 µM (inactive)	18 µM (inactive)	19.1 µM (inactive)	29.6 µM (inactive)	40.5 µM (inactive)	24.2	24.1 µM (inactive)	33 µM (inactive)	27 µM (inactive)	20.3 µM (inactive)	21.4 µM (inactive)	15.5 µM (inactive)				
CC1(C(=O)O)CCC[C@@]2(C)C1CC[C@@]1(C)c3cocc3CCC21 (stereo partly drawn)	> 100 µM (inactive)	> 100 µM (inactive)	> 100 µM (inactive)	> 100 µM (inactive)	> 100 µM (inactive)	> 100 µM (inactive)	> 100 µM (inactive)	> 100 µM (inactive)	> 100	> 100 µM (inactive)	40.9 µM (inactive)	> 100 µM (inactive)	> 100 µM (inactive)	> 100 µM (inactive)	> 100 µM (inactive)				
N=C1SCCS1	> 100 µM (inactive)	> 100 µM (inactive)	> 100 µM (inactive)	> 100 µM (inactive)	> 100 µM (inactive)	> 100 µM (inactive)	> 100 µM (inactive)	> 100 µM (inactive)	> 100	> 100 µM (inactive)	> 100 µM (inactive)	> 100 µM (inactive)	> 100 µM (inactive)	> 100 µM (inactive)	> 100 µM (inactive)				
CCOc1ccccc1NC(=O)C(=O)C(C(=O)c1ccc2ccccc2c1)C1OC(=O)c2ccccc21 (stereo not drawn)	7.08 µM (inactive)	20.8 µM (inactive)	15.9 µM (inactive)	5.86 µM (inactive)	12.7 µM (inactive)	14.3 µM (inactive)	14.8 µM (inactive)	8.77 µM (inactive)	14.2	10.4 µM (inactive)	17.1 µM (inactive)	10.4 µM (inactive)	15.5 µM (inactive)	6.31 µM (inactive)	15.4 µM (inactive)				
O=c1[nH]nc(-c2ccccc2)c(-c2ccccc2)c1-n1nc(-c2ccccc2)c2ccccc2c1=O	> 100 µM (inactive)	65.8 µM (inactive)	> 100 µM (inactive)	> 100 µM (inactive)	51.5 µM (inactive)	> 100 µM (inactive)	34.6 µM (inactive)	> 100 µM (inactive)	78	> 100 µM (inactive)	27.9 µM (inactive)	> 100 µM (inactive)	> 100 µM (inactive)	99.5 µM (inactive)	> 100 µM (inactive)				
O=C1/C(=C\c2ccccc2)c2ccccc2N1/N=C\c1ccccc1	> 100 µM (inactive)	49.1 µM (inactive)	> 100 µM (inactive)	> 100 µM (inactive)	91.8 µM (inactive)	> 100 µM (inactive)	> 100 µM (inactive)	90.4 µM (inactive)	43.9	> 100 µM (inactive)	42.7 µM (inactive)	> 100 µM (inactive)	> 100 µM (inactive)	59 µM (inactive)	> 100 µM (inactive)				
CN(C)C(=O)C(F)(F)C(c1ccccc1)C1C(=O)N(C)C(=O)N(C)C1=O (stereo not drawn)		> 100 µM (inactive)	> 100 µM (inactive)	> 100 µM (inactive)	> 100 µM (inactive)		> 100 µM (inactive)	> 100 µM (inactive)	> 100	> 100 µM (inactive)	> 100 µM (inactive)	> 100 µM (inactive)		> 100 µM (inactive)	> 100 µM (inactive)	> 100 µM (inactive)	> 100 µM (inactive)	> 100 µM (inactive)	> 100 µM (inactive)
O=[N+]([O-])c1ccc(C2CC(c3ccccc3Cl)=Nc3ccccc3S2)cc1 (stereo not drawn)	6.65 µM (inactive)	3.08 µM (inactive)	12.1 µM (inactive)	4.15 µM (inactive)	8.79 µM (inactive)	10.9 µM (inactive)	15.8 µM (inactive)	3.99 µM (inactive)	5.35	4.46 µM (inactive)	1.75 µM (inactive)	8.34 µM (inactive)	4.02 µM (inactive)	1.78 µM (inactive)	29 µM (inactive)				
CC1=CCN(c2ccccn2)OC1c1ccccc1 (stereo not drawn)	> 100 µM (inactive)	> 100 µM (inactive)	> 100 µM (inactive)	> 100 µM (inactive)	> 100 µM (inactive)	> 100 µM (inactive)	> 100 µM (inactive)	> 100 µM (inactive)	> 100	> 100 µM (inactive)	> 100 µM (inactive)	> 100 µM (inactive)	> 100 µM (inactive)	> 100 µM (inactive)	> 100 µM (inactive)				
CN1C(=O)C2(C=CC(O)CC2)c2ccccc21 (stereo not drawn)		> 100 µM (inactive)	> 100 µM (inactive)	> 100 µM (inactive)	> 100 µM (inactive)		> 100 µM (inactive)	> 100 µM (inactive)	> 100	> 100 µM (inactive)	> 100 µM (inactive)	> 100 µM (inactive)	> 100 µM (inactive)	> 100 µM (inactive)	> 100 µM (inactive)	> 100 µM (inactive)	> 100 µM (inactive)	> 100 µM (inactive)	> 100 µM (inactive)
